Test results from EP3117212B1, “METHOD OF STUDYING ABCG2 PROTEIN ACTIVITY AND USE OF 2-AMINOETHYL DIPHENYLBORINATE” (Uniwersytet Lodzki, priority 2014, dated 2015).
Numbering of substitutions follows the chain as printed.

Tests used:
Type in all cases: cell-based
human ABCG2 protein = target: T1, human ABCG2 protein (Homo sapiens, UniProt Q9UNQ0); test: Polyphenol accumulation in SB MDCKII-BCRP cells with/without Ko143, APB conjugate fluorescence (substrate verification); details: 20 µM compound; for transport substrate for the ABCG2 protein: 1 h, 37°C, with/without 10 µM Ko143, significantly higher fluorescence with Ko143; for transport capacity: relative difference between fluorescence values with/without 10 µM Ko143
T1 construct: host or cells: MDCKII (SB MDCKII-BCRP cell line)
T1 sequence (Q9UNQ0 1-655): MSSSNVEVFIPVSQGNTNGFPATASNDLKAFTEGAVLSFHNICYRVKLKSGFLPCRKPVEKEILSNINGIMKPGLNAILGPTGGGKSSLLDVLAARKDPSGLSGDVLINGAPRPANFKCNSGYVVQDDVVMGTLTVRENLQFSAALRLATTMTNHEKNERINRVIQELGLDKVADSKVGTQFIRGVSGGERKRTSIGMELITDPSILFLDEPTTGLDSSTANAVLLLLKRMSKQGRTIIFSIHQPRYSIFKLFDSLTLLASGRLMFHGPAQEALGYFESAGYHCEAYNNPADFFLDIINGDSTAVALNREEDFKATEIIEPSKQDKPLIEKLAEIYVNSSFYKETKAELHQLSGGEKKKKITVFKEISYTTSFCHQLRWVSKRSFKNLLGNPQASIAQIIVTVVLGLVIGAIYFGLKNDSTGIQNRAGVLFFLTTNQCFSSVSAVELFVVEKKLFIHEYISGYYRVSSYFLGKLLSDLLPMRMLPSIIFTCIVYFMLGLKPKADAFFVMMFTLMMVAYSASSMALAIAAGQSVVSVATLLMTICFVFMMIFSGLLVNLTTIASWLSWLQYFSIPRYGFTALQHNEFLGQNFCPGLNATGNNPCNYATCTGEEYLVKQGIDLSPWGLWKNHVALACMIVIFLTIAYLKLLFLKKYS
Excerpt: The results are shown on Fig. 1. […] The relative difference between the fluorescence values leads to the conclusion that transport capacity is the highest for compounds 9, 3 and 1 and the lowest for compounds 2 and 6.
On Figure 1 fluorescence of the conjugates of APB and polyphenolic compounds is shown for the cell lysates (mean ± the standard error of the mean, n=5; statistically significant differences at the significance level <0.05 are marked with * symbol).

ABCG2 R482K = target: T2, ABCG2 R482K (Homo sapiens, UniProt Q9UNQ0, R482K); test: Luteolin transport in transfected HeLa cells with/without Ko143, APB conjugate fluorescence; details: R482K variant in HeLa cells; 10 µM luteolin, 0 or 10 µM Ko143, 1 h
T2 construct: expressed in transfected cells; host or cells: HeLa, transient transfection (FuGene HD), pcDNA6.2/V5 vector
T2 sequence (Q9UNQ0 1-655 R482K): T1 sequence (Q9UNQ0 1-655) with R482K
Description: (§1) A plasmid expression vector for the ABCG2 protein was prepared using standard molecular biology techniques. The vector was obtained by cloning of a sequence encoding human ABCG2 and (as an N-terminal fusion protein within the same open reading frame) a sequence encoding TagGFP2 fluorescent protein (obtained from the pTagGFP2-C plasmid produced by Evrogen, cat. no. FP191) into the pcDNA6.2/V5 plasmid. Subsequently, a series of expression vectors for sequential variants of the ABCG2 protein were prepared by performing site-directed mutagenesis in the codons coding particular amino acids in this sequence. For this purpose the Quickchange Lightning kit for site-directed mutagenesis manufactered by AgilentStratagene (cat. no. 210513) was used, in full compliance with the manufacturer's instructions. In this way, the vectors encoding the following sequential variants of the ABCG2 protein were obtained (letters denote the standard IUPAC codes for amino acid residues changed with regard to the wild-type sequence, the number denotes the position of the amino acid residue in the polypeptide chain from the N-terminus of the protein): R482G,R482K, K86M.
(§2) 72 hours before the experiment, the cells were chemically transfected with the above mentioned plasmids using the FuGene HD reagent (product from Promega, cat. no. E2311). The transfection mixture contained 150 µl of OptiMEM culture medium (product from Life Technologies, cat. no. 31985070), 3.3 µg of plasmid DNA and 9.9 µl of Fugene HD. The mixture was vortexed, incubated for 5 minutes and added to 2 ml of medium and the cells on the 6-well plate. 24 hours before the experiment, the cells were plated on a standard black 96-well polystyrene microplate with surface modified for cell culture (product from Thermo Scientific Nunc cat. no. 137101) with 50,000 cells per well in standard DMEM culture medium (product from LifeTechnologies cat. no. 32430) supplemented with 10% fetal bovine serum. […] The cells were then incubated for 1 h in a standard incubator for in vitro cell culture in temperature of 37°C. The incubation was followed by removing the medium and the cells were washed twice with portions of 50 µl of buffered saline (PBS, product from Life Technologies cat. no. 10010) in temperature of 4°C. Then the cells were lysed (solubilized) in 100 µl of PBS with the following additives: 0.5% (v/v) Triton X-100 surfactant (product from Sigma Aldrich, cat. no. T8787) and 0.25 mg/ml 2-aminoethyl-diphenylborinate (APB, CAS no. 208-366-5, product from Sigma Aldrich, cat. no. D9754). The compound APB was added to the PBS solution from a stock solution in DMSO with a concentration of 250 mg/ml permanently stored in temperature of -20°C. The cells were lysed by shaking the microplate in room temperature for 5 minutes.

ABCG2 K86M = target: T3, ABCG2 K86M (Homo sapiens, UniProt Q9UNQ0, K86M); test: as above; details: K86M variant in HeLa cells; 10 µM luteolin, 0 or 10 µM Ko143, 1 h
T3 construct: expressed in transfected cells; host or cells: HeLa, transient transfection (FuGene HD), pcDNA6.2/V5 vector
T3 sequence (Q9UNQ0 1-655 K86M): T1 sequence (Q9UNQ0 1-655) with K86M
Description: as §1, §2

ABCG2 wild-type = target: T4, ABCG2 wild-type (Homo sapiens, UniProt Q9UNQ0); test: as above; details: 10 µM luteolin, 0 or 10 µM Ko143, 1 h
T4 construct: expressed in transfected cells; host or cells: HeLa, transient transfection (FuGene HD), pcDNA6.2/V5 vector
T4 sequence (Q9UNQ0 1-655): T1 sequence (Q9UNQ0 1-655)
Description: as §1, §2

ABCG2 R482G = target: T5, ABCG2 R482G (Homo sapiens, UniProt Q9UNQ0, R482G); test: as above; details: R482G variant in HeLa cells; 10 µM luteolin, 0 or 10 µM Ko143, 1 h
T5 construct: expressed in transfected cells; host or cells: HeLa, transient transfection (FuGene HD), pcDNA6.2/V5 vector
T5 sequence (Q9UNQ0 1-655 R482G): T1 sequence (Q9UNQ0 1-655) with R482G
Description: as §1, §2

Structure (SMILES) | transport substrate for the ABCG2 protein (human ABCG2 protein) | transport capacity (human ABCG2 protein) | transport activity towards luteolin (ABCG2 R482K) | transport activity towards luteolin (ABCG2 K86M) | transport activity towards luteolin (ABCG2 wild-type) | transport activity towards luteolin (ABCG2 R482G)
O=c1c(O)c(-c2ccc(O)c(O)c2)oc2cc(O)cc(O)c12 [Compound 1, quercetin] | ABCG2 protein substrates | highest | – | – | – | –
O=c1c(O)c(-c2ccc(O)cc2)oc2cc(O)cc(O)c12 [Compound 2, kaempferol] | ABCG2 protein substrates | lowest | – | – | – | –
O=c1cc(-c2ccc(O)c(O)c2)oc2cc(O)cc(O)c12 [Compound 3, luteolin] | ABCG2 protein substrates | highest | slightly decreased in relation to the wild-type | did not show any transport activity | similar, maximum transport activity | similar, maximum transport activity
O=c1c(O)c(-c2ccc(O)c(O)c2)oc2cc(O)ccc12 [Compound 4, fisetin] | ABCG2 protein substrates | – | – | – | – | –
COc1ccc2oc(-c3ccc(OC)c(OC)c3)c(O)c(=O)c2c1 [Compound 6, 6,3',4'-trimethoxy-3-hydroxyflavone] | ABCG2 protein substrates | lowest | – | – | – | –
COc1ccc(OC)c(-c2oc3ccccc3c(=O)c2O)c1 [Compound 9, 2',5'-dimethoxy-3-hydroxyflavone] | ABCG2 protein substrates | highest | – | – | – | –
